Results reported in ChEMBL document CHEMBL1143228, “Inhibition of lipopolysaccharide-induced inducible nitric oxide synthase and cyclooxygenase-2 expression by xanthanolides isolated from Xanthium strumarium” (Bioorg Med Chem Lett, 2008).
Active and inactive are the calls of the source. No cut-off for these calls is given here.

What was measured:
BV-2 [1] = assay: Inhibition of COX2 expression in LPS-stimulated mouse BV2 cells after 20 hrs by Western blot analysis; format: functional, cell-based
BV-2 [2] = assay: Inhibition of IkappaB alpha degradation in LPS-induced mouse BV2 cells at 20 uM after 30 mins by Western blot analysis; format: functional, cell-based
BV-2 [3] = assay: Inhibition of NO production in LPS-activated mouse BV2 cells by […]; format: functional, cell-based
BV-2 [4] = assay: Inhibition of iNOS expression in LPS-stimulated mouse BV2 cells at 20 uM after 20 hrs by Western blot analysis; format: functional, cell-based
BV-2 [5] = assay: Inhibition of iNOS mRNA expression in LPS-stimulated mouse BV2 cells at 20 uM after 4 hrs by RT-PCR; format: functional, cell-based
BV-2 [6] = assay: Inhibition of COX2 mRNA expression in LPS-stimulated mouse BV2 cells at 20 uM after 4 hrs by RT-PCR; format: functional, cell-based
BV-2 [7] = assay: Inhibition of NF-kappaB activity in LPS-stimulated mouse BV2 cells at 10 uM after 1 hr by luciferase reporter gene assay; format: cell-based

IC50 (BV-2 [3]) [µM] | SMILES | Activity (BV-2 [1]) | Activity (BV-2 [2]) | Activity (BV-2 [4]) | Activity (BV-2 [5]) | Activity (BV-2 [6]) | Activity (BV-2 [7])
11.2 | C=C1C(=O)O[C@H]2C[C@H](C)C(CCC(C)=O)=CC[C@H]12 | Active | Active | Active | Active | Active | –
0.47 | C=C1C(=O)O[C@H]2C[C@H](C)C(/C=C/C(C)=O)=CC[C@H]12 | Active | Active | Active | Active | Active | Active
136 | C=C(C(=O)O)[C@H]1CC=C(/C=C/C(C)=O)[C@@H](C)CC1 | – | – | – | – | – | –
